Assay results from patent US8231888B2, “Isoxazolines for controlling invertebrate pests” (priority 2005, dated 2012).

Legend:
Assay type in all cases: in vivo
[1] = test system: fall armyworm (Spodoptera frugiperda); assay: Test B: control of fall armyworm on corn (maize) plant, foliar spray; conditions: sprayed at 250 and/or 50 ppm; no asterisk (not limited to 250 ppm)
Method: (§1) Test compounds were formulated using a solution containing 10% acetone, 90% water and 300 ppm X-77™ Spreader Lo-Foam Formula non-ionic surfactant containing alkylarylpolyoxyethylene, free fatty acids, glycols and isopropanol (Loveland Industries, Inc. Greeley, Colo., USA). The formulated compounds were applied in 1 mL of liquid through a SUJ2 atomizer nozzle with 1/8 JJ custom body (Spraying Systems Co. Wheaton, Ill., USA) positioned 1.27 cm (0.5 inches) above the top of each test unit. All experimental compounds in these tests were sprayed at 250 and/or 50 ppm, and the test was replicated three times. After spraying of the formulated test compound, each test unit was allowed to dry for 1 h and then a black, screened cap was placed on top. The test units were held for 6 days in a growth chamber at 25° C. and 70% relative humidity. Plant feeding damage was then visually assessed based on foliage consumed and a pest mortality rating was also counted and calculated for each test unit.
For evaluating control of fall armyworm (Spodoptera frugiperda) the test unit consisted of a small open container with a 4-5-day-old corn (maize) plant inside. This was pre-infested (using a core sampler) with 10-15 1-day-old larvae on a piece of insect diet. Test compounds were formulated and sprayed at 250 and/or 50 ppm as described for Test A and replicated three times. After spraying, the test units were maintained in a growth chamber and then the control efficacy was rated for each test unit as described for Test A.

[2] = test system: cat flea (Ctenocephalides felis Bouche); assay: Test E: control of cat flea on orally dosed CD-1 mouse; conditions: 10 mg/kg oral, fleas applied 2 h after dosing, mortality 48 hours after flea application
Method: For evaluating control of the cat flea (Ctenocephalides felis Bouche), a CD-1® mouse (about 30 g, male, obtained from Charles River Laboratories, Wilmington, Mass.) was orally dosed with a test compound in an amount of 10 mg/kg solubilized in propylene glycol/glycerol formal (60:40). Two hours after oral administration of the test compound, approximately 8 to 16 adult fleas were applied to each mouse. The fleas were then evaluated for mortality 48 hours after flea application to the mouse.

[3] = test system: diamondback moth (Plutella xylostella); assay: Test A: control of diamondback moth on radish plant, foliar spray; conditions: sprayed at 250 and/or 50 ppm, 6 days, 25° C.; no asterisk (not limited to 250 ppm)
Source text: For evaluating control of diamondback moth (Plutella xylostella) the test unit consisted of a small open container with a 12-14-day-old radish plant inside. This was pre-infested with about 50 neonate larvae that were dispensed into the test unit via corn cob grits using a bazooka inoculator. The larvae moved onto the test plant after being dispensed into the test unit.
as §1

[4] = test system: western flower thrips (Frankliniella occidentalis); assay: Test D: control of western flower thrips on Soleil bean plant, contact and/or systemic; conditions: sprayed at 250 and/or 50 ppm, 6 days, 25° C.; no asterisk (not limited to 250 ppm)
Method: as §1
For evaluating control of the western flower thrips (Frankliniella occidentalis) through contact and/or systemic means, the test unit consisted of a small open container with a 5-7 day old Soleil Bean plant inside. Test compounds were formulated and sprayed at 250 and/or 50 ppm, and the test was replicated three times as described for Test A. After spraying, the test units were allowed to dry for 1 hour and then 22-27 adult thrips were added to each unit and then a black, screened cap was placed on top. The test units were held for 6 days at 25° C. and 45-55% relative humidity. A mortality rating was assessed along with a plant damage rating for each test unit.

SMILES	control efficacy (20% or less feeding damage or 80% or more mortality) [1]	flea mortality [2]	control efficacy (20% or less feeding damage or 80% or more mortality) [3]	control efficacy (20% or less feeding damage or 80% or more mortality) [4]
O=C(NCc1ccccn1)c1ccc(C2=NOC(c3cc(Cl)cc(Cl)c3)(C(F)(F)F)C2)c2ccccc12 (stereo not shown) [Compound 2]	very good to excellent levels of control efficacy	≥ 30%	very good to excellent levels of control efficacy	very good to excellent levels of control efficacy
O=C(NCc1ccccn1)c1ccc(C2=NOC(c3cc(Cl)cc(Cl)c3)(C(F)(F)F)C2)c2ccncc12 (stereo not shown) [Compound 104, 5-[5-(3,5-dichlorophenyl)-4,5-dihydro-5-(trifluoromethyl)-3-isoxazolyl]-N-(2-pyridinylmethyl)-8-isoquinolinecarboxamide]	very good to excellent levels of control efficacy	–	very good to excellent levels of control efficacy	very good to excellent levels of control efficacy
